Values of other authors as cited in article PMC3816732, “Database-Guided Discovery of Potent Peptides to Combat HIV-1 or Superbugs” (Pharmaceuticals, 2013).
Entries after “also recorded” stand apart in the source; their conditions may differ. Where two headings read alike, the source gives them in different places. Bridges are numbered along the chain shown (N, C = ends). Where no end group is shown, it is not given here.

Key:
HIV-1 = tested on: HIV-1
Excerpt: For example, proline-rich AMPs are known to interact with bacterial heat shock proteins.

[1] = tested on: Staphylococcus aureus USA300 LAC; parameters: method as in 2 sources, ref 52, 53 = [52]; PMID 20086159; doi:10.1128/AAC.01448-09; 52. Wang G. Watson K.M. Peterkofsky A. Buckheit R.W. Jr. Identification of novel human immunodeficiency virus type 1 inhibitory peptides based on the antimicrobial peptide database Antimicrob. Agents || [53]; PMID 22445495; doi:10.1016/j.ijantimicag.2012.02.003; 53. Menousek J. Mishra B. Hanke M.L. Heim C.E. Kielian T. Wang G. Database screening and in vivo efficacy of antimicrobial peptides against methicillin-resistant Staphylococcus aureus USA300 Int. J. A ||| ref 55 = [55]; PMID 22803960; doi:10.1021/ja305644e; 55. Mishra B. Wang G. Ab initio design of potent anti-MRSA peptides based on database filtering technology J. Am. Chem. Soc. 2012 134 12426 12429 10.1021/ja305644e 22803960 PMC3412535; conditions: for S. aureus USA300 (MIC, μM): S. aureus USA300 LAC (MRSA), database screening; for activity against S. aureus USA300 (MRSA), in words: database-screened peptides
Excerpt: In fact, the annual frequency of deaths from MRSA is rapidly increasing and has surpassed those caused by HIV/AIDS. Therefore, there is a need to develop new treatments to control MRSA. To identify new compounds against MRSA USA300 LAC, we also assayed the antibacterial activity of the same 30 peptides used for screening anti-HIV-1 peptides above. […] For example, proline-rich AMPs are known to interact with bacterial heat shock proteins.

Bacillus subtilis = conditions: database-screened peptides
Excerpt: [The procedure below names another organism; the source lists this organism under the same test.] (§1) The spread of MRSA from the clinical setting to the communities is worrisome. In fact, the annual frequency of deaths from MRSA is rapidly increasing and has surpassed those caused by HIV/AIDS. Therefore, there is a need to develop new treatments to control MRSA. To identify new compounds against MRSA USA300 LAC, we also assayed the antibacterial activity of the same 30 peptides used for screening anti-HIV-1 peptides above. […] We referred to this unique method as ab initio design to distinguish it from the de novo methods above. Our design comprises two major modules. The first module consists of an activity filter that allows us to obtain a list of peptides with desired activity (e.g., antibacterial, antifungal, antiviral, antiparasitic, or anticancer). To obtain compounds to kill S. aureus, we retrieved all AMPs with activity against Gram-positive bacteria as model peptides. The second module is composed of a series of parameter filters ...

Pseudomonas aeruginosa = conditions: database-screened peptides
Excerpt: [The procedure below names another organism; the source lists this organism under the same test.] as §1

Escherichia coli = conditions: database-screened peptides
Excerpt: as §1, with “... || As a second example, we also aimed to identify the minimal active region in a longer peptide. Human cathelicidin LL-37 is a 37-residue peptide starting with a pair of leucines. Our studies produced a library of model peptides with distinct antimicrobial activity. KR-12 is identified as the minimal antibacterial peptide corresponding to residues 18–29 of human LL-37. It is active against E. coli but not HIV-1 [56, 71]. However, FK-13, a core antimicrobial peptide with one more phenylalanine at the N-terminus than KR-12 [72], is active against both HIV-1 and E. coli.” for “...”

Staphylococcal biofilm = conditions: catheter embedded in mice
E. coli K12 = tested on: E. coli K12; parameters: method as in 5 sources, ref [9] = [9]; PMID 18957441; doi:10.1093/nar/gkn823; 9. Wang G. Li X. Wang Z. The updated antimicrobial peptide database and its application in peptide design Nucleic Acids Res. 2009 37 D933 D937 10.1093/nar/gkn823 18957441 PMC2686604 ||| ref [52] = [52]; PMID 20086159; doi:10.1128/AAC.01448-09; 52. Wang G. Watson K.M. Peterkofsky A. Buckheit R.W. Jr. Identification of novel human immunodeficiency virus type 1 inhibitory peptides based on the antimicrobial peptide database Antimicrob. Agents ||| ref [54] = [54]; doi:10.4172/2155-6113.S2-003; 54. Wang G. Buckheit K.W. Mishra B. Lushnikova T. Buckheit R.W. Jr. De Novo Design of Antiviral and Antibacterial Peptides with Varying Loop structures J. AIDS Clin. Res. 2011 S2:003 10.4172/2155-6113 ||| ref 9, 52, 54 = [9]; PMID 18957441; doi:10.1093/nar/gkn823; 9. Wang G. Li X. Wang Z. The updated antimicrobial peptide database and its application in peptide design Nucleic Acids Res. 2009 37 D933 D937 10.1093/nar/gkn823 18957441 PMC2686604 || [52]; PMID 20086159; doi:10.1128/AAC.01448-09; 52. Wang G. Watson K.M. Peterkofsky A. Buckheit R.W. Jr. Identification of novel human immunodeficiency virus type 1 inhibitory peptides based on the antimicrobial peptide database Antimicrob. Agents || [54]; doi:10.4172/2155-6113.S2-003; 54. Wang G. Buckheit K.W. Mishra B. Lushnikova T. Buckheit R.W. Jr. De Novo Design of Antiviral and Antibacterial Peptides with Varying Loop structures J. AIDS Clin. Res. 2011 S2:003 10.4172/2155-6113 ||| ref 9, 54 = [9]; PMID 18957441; doi:10.1093/nar/gkn823; 9. Wang G. Li X. Wang Z. The updated antimicrobial peptide database and its application in peptide design Nucleic Acids Res. 2009 37 D933 D937 10.1093/nar/gkn823 18957441 PMC2686604 || [54]; doi:10.4172/2155-6113.S2-003; 54. Wang G. Buckheit K.W. Mishra B. Lushnikova T. Buckheit R.W. Jr. De Novo Design of Antiviral and Antibacterial Peptides with Varying Loop structures J. AIDS Clin. Res. 2011 S2:003 10.4172/2155-6113; conditions: for MIC: peptide potency against E. coli K12
Excerpt: Our initial attempt was a stepwise design based on the bioinformatics results from our database.

[2] = tested on: herpes simplex virus type-2 (HSV-2); parameters: method as in doi:10.4172/2155-6113.S2-003
Excerpt: These GLRC peptides (Table 3) are made of only amino acids G, L, R, and C. […] O ...

[3] = peptide potency against HIV-1, database-guided designed peptides

Substance | S. aureus USA300 (MIC, μM) [1] | activity against S. aureus USA300 (MRSA), in words [1] | activity against B. subtilis, in words (Bacillus subtilis) | activity against P. aeruginosa, in words (Pseudomonas aeruginosa) | activity against E. coli, in words (Escherichia coli) | EC50 (HIV-1; [3]) | MIC (E. coli K12) | further results
Ascaphin-8 | 3.1 µM | effective | active | active | active |  |  | activity against HIV-1, in words (HIV-1): effective; EC50 (HIV-1; read-out: HIV-1 (EC50)): 1.2 µM; activity against S. aureus USA300 (MRSA), in words ([1]; listed as Aascaphin-8): active
FFGKVLKLIRKIF-NH2 [DASamP1] | 3.1 µM | active; also recorded: effective | not | not | not |  |  | activity against HIV-1, in words (HIV-1): effective; EC50 (HIV-1; read-out: HIV-1 (EC50)): 0.63 µM; prevention of Staphylococcal biofilm formation (Staphylococcal biofilm): able to prevent Staphylococcal biofilm formation
GCRRLCGRLGRRLCRLLCR (also: bicyclic or more (positions not given here)) [GLRC-4] |  |  |  |  |  | 30.7 µM | 60 µM | Stability (% left) (chymotrypsin; stability to the action of chymotrypsin): 9.7 % left
GCRRLLGRLLRRLGRLLCR (disulfide 2-18 (inferred)) [GLRC-1] |  |  |  |  |  | > 43.8 µM | 30 µM | Stability (% left) (chymotrypsin): 20.8 % left
GLKKLLGKLLKKLGKLLLK [GLK-19, 19-residue peptide containing only G, L, and K] |  |  |  |  |  | > 47.5 µM | 10 µM | activity against HIV-1, in words (HIV-1; GLK/GLR/GLRC designed peptides): not
GLRCRLGRLLRRLGRCLLR (disulfide 4-16 (inferred)) [GLRC-2] |  |  |  |  |  | 0.79 µM | 30 µM | activity against HIV-1, in words (HIV-1; GLK/GLR/GLRC designed peptides): most effective; inhibitory effect on HSV-2 [2]: inhibitory effect; Stability (% left) (chymotrypsin): 63.3 % left; stability to the action of chymotrypsin, in words (chymotrypsin): most stable
GLRRLCGRLGRRLCRLLLR (disulfide 6-14 (inferred)) [GLRC-3] |  |  |  |  |  | 2.8 µM | 7.5 µM | Stability (% left) (chymotrypsin): 1.4 % left
GLRRLLGRLLRRLGRLLLR [GLR-19] |  |  |  |  |  | 4.4 µM | >120 µM | activity against HIV-1, in words (HIV-1; GLK/GLR/GLRC designed peptides): HIV-1 inhibitory; activity against E. coli, in words (E. coli K12; GLK/GLR designed peptides): lost activity; Stability (% left) (chymotrypsin): 14.5 % left
IKWKKLLRAAKRIL-NH2 [DASamP2, derivative of polybia-MPI, […]-amide] | 6.2 µM | active | active | active | active |  |  | 
Lycotoxin I: spider antimicrobial peptide (IWLTALKFLGKHAAKHLAKQQLSKL; UniProt P61507 1-25, looked up) | 3.1 µM | active | active | active | active |  |  | 
Maculatin 1.3 | 6.2 µM | active | active | not | not |  |  | 
Piscidin 1 | 3.1 µM | effective | active | active | active |  |  | activity against S. aureus USA300 (MRSA), in words ([1]; listed as piscidin 1): active
Ponericin L2 [reference compound] |  |  |  |  |  |  |  | EC50 (HIV-1; read-out: HIV-1 (EC50), database screening of 30 APD peptides): 1.4 µM
drosocin [reference compound] |  |  |  |  |  |  |  | activity against HIV-1, in words (HIV-1): did not show any activity
